Measured values from patent publication EP0384661A1, “Antialgal compositions comprising diphenylethers” (ROHM AND HAAS COMPANY, priority 1989, dated 1990).
In brackets after ≈: the same amount, converted by molar mass. Counter-ions that a name gives are not always drawn. One block for each compound: values may come before it.

Tests used:
Anabaena flos-aquae = test: MIC microtiter plate assay; type: cell-based; settings: Dolichospermum flos-aquae; growth/no-growth after 14 or 21 days, 25°C
Description: (§1) Efficacy studies were conducted on a variety of microorganisms with oxyfluorfen. Minimum Inhibitory Concentration (MIC) studies were conducted using microtiter plate assays. In this method, a wide range of concentrations was tested by preparing two-fold serial dilutions of the compound in 96-well plastic microtiter plates. All liquid media transfers were performed with calibrated single or multichannel digital pipetters. Stock solutions of compounds were prepared in appropriate solvents and dispensed to the growth medium. All subsequent dilutions in plates were made using the desired growth medium. The total volume of liquid in each well was 100 ul. The pure cultures used in this study were obtained from the Culture Collection of Algae at the University of Texas at Austin (UTEX). The mixed culture of algae was obtained from a cooling tower biofilm and maintained in liquid medium; microorganisms used as inocula were cultured in shaken liquid culture (50 ml of Bristol's medium, pH 7.0, 25°C); Journal of Phycology, 23s: 1-47, 1987) for one week or as needed to attain a desired cell mass. The cultures were then inoculated into the microtiter plates using a 96-prong multiple inoculator (5 µl inoculum); each well received a standard suspension of biomass (5% inoculum). Plates were incubated at 25°C under constant illumination (500 ft candles). The extent of growth was determined under low magnification with the aid of a microtiter plate reader. The growth in each cell was monitored periodically and growth/no-growth was recorded after 14 or 21 days. […] Following the evaluation procedure of Example 3, compounds according to the following structural formula, with X and Y substituents according to Table 4A, were evaluated with the results shown in Table 4B. [drawing 4]

[1] = test system: Mixed Cooling Tower Culture; test: MIC microtiter plate assay; type: cell-based, mixed culture of algae; settings: growth/no-growth after 14 or 21 days, 25°C
Description: as §1

[2] = test system: mixed population of algae and blue-green bacteria; test: Model cooling tower biofilm efficacy (chlorophyll a); type: cell-based; settings: one-per-week slug doses, biofilm harvested after four weeks
Description: Oxyfluorfen was tested as a water treatment antialgal compound in model cooling towers which simulate pertinent process variables of industrial cooling towers. Compounds were dosed on a regular basis and the efficacy of the treatments was determined by measuring a parameter of algal or cyanobacterial biomass; specific operating parameters are described below.
The basic design consisted of an acrylic plastic tower placed within a 17-liter polycarbonate basin. Each model contained a temperature control system, acid (H₂SO₄) or base (KOH) feed for pH control, air flow regulators, water recirculation system, and a makeup water supply. Two sets of five towers were placed in vented enclosures.
The basin contained an overflow port positioned to provide a constant 8-liter working volume in the system. […]
Illumination was provided by cool white and grow-lux fluorescent lights operated on a 19 hours per day cycle. The heating system for each unit consisted of an immersion heating element, temperature controller, two thermistors, and a direct readout thermometer. […]
The model cooling towers were designed and operated to maintain a constant half-life in each unit. […] The rate of removal of a given compound from the system was thereby determined by the concentration of the material in the bulkwater and the rate of blowdown from the tower. […]

[3] = test system: mixed cooling tower culture; test: Simulated cooling tower water jar test, visual growth rating; type: cell-based; parameters: key to Visual Rating (7 Day Incubation): 0 = no growth; 1 = slight growth; 3 = moderate growth; 5 = abundant growth; settings: for Visual Rating (7 Day Incubation): synthetic cooling tower water pH 8.5
Description: A study was conducted with simulated cooling tower water to determine the effect of oxyfluorfen as an antialgal compound under simulated cooling tower conditions. Synthetic cooling tower water was made up with the following final concentrations (pH 8.5): Approximately 500 ml of the above solution was added to half-gallon jars and each jar was charged with given levels of oxyfluorfen (supplied as an emulsifiable concentrate); one jar contained no antialgal compound (control). Another set of jars was prepared with known levels of Isothiazolone A, a known antialgal compound for comparison purposes. Each jar was inoculated with 5 ml of a mixed cooling tower culture which was obtained from surface scrapings of industrial cooling towers; the mixed populations were maintained at room temperature in modified Allen's Media Formulation B described below in Part B. Each jar was inoculated two times per week to challenge the system. Jars were incubated under a 12 hour illumination cycle at room temperature (25°C) and were mixed manually (by swirling) three times per day. Visual observations were recorded daily using the rating scale described in Part C.

Chlorella pyrenoidosa = test: MIC microtiter plate assay; type: cell-based; settings: growth/no-growth after 14 or 21 days, 25°C
Description: (§2) Efficacy studies were conducted on a variety of microorganisms with oxyfluorfen. Minimum Inhibitory Concentration (MIC) studies were conducted using microtiter plate assays. In this method, a wide range of concentrations was tested by preparing two-fold serial dilutions of the compound in 96-well plastic microtiter plates. All liquid media transfers were performed with calibrated single or multichannel digital pipetters. Stock solutions of compounds were prepared in appropriate solvents and dispensed to the growth medium. All subsequent dilutions in plates were made using the desired growth medium. The total volume of liquid in each well was 100 ul. The pure cultures used in this study were obtained from the Culture Collection of Algae at the University of Texas at Austin (UTEX). The mixed culture of algae was obtained from a cooling tower biofilm and maintained in liquid medium; microorganisms used as inocula were cultured in shaken liquid culture (50 ml of Bristol's medium, pH 7.0, 25°C); Journal of Phycology, 23s: 1-47, 1987) for one week or as needed to attain a desired cell mass. The cultures were then inoculated into the microtiter plates using a 96-prong multiple inoculator (5 µl inoculum); each well received a standard suspension of biomass (5% inoculum). Plates were incubated at 25°C under constant illumination (500 ft candles). The extent of growth was determined under low magnification with the aid of a microtiter plate reader. The growth in each cell was monitored periodically and growth/no-growth was recorded after 14 or 21 days.

Clorococcum oleofaciens = test: MIC microtiter plate assay; type: cell-based; settings: growth/no-growth after 14 or 21 days, 25°C
Description: as §2

Nostoc commune = test: MIC microtiter plate assay; type: cell-based; settings: growth/no-growth after 14 or 21 days, 25°C
Description: as §2

[4] = test system: Phormidium luridum var. olivace; test: MIC microtiter plate assay; type: cell-based; settings: Drouetiella lurida; growth/no-growth after 14 or 21 days, 25°C
Description: as §2

Scendesmus quadricaudra = test: MIC microtiter plate assay; type: cell-based; settings: growth/no-growth after 14 or 21 days, 25°C
Description: as §2

[5] = test system: Selanastrum capricornutum; test: MIC microtiter plate assay; type: cell-based; settings: growth/no-growth after 14 or 21 days, 25°C
Description: as §2

[6] = test system: Synechococcus leopooliensis; test: MIC microtiter plate assay; type: cell-based; settings: growth/no-growth after 14 or 21 days, 25°C
Description: as §2

[7] = test system: mixed cooling tower algae; test: Paint algicide test (latex paint on tongue depressors); type: cell-based; parameters: key to 7 Days Algal Growth / 10 Days Algal Growth / 14 Days Algal Growth: 0 = No Algal Growth; 5 = Moderate Algal Growth; 10 = Heavy Algal Growth
Description: Solutions of oxyfluorfen were prepared as follows in 1-ounce (28.3g) glass vials. Oxyfluorfen concentrate (0.17 g) was added to 19.83 g latex paint formulation (described below) to give 2-lb oxyfluorfen/100 gal. (2 kg/833 l) paint solution; in a similar manner, 0.08 g oxyfluorfen concentrate was added to 19.92 g latex paint formulation to give 1-lb/100-gal (1 kg/833 l) solution. Oxyfluorfen concentrate (1.0 g) was added to 19.0 g mixture of 2 parts xylene/1 part cyclohexanone; 0.17 g of the resultant solution was added to 19.83 g latex paint formulation to give 0.1-lb/100-gal oxyfluorfen solution; in a similar manner, 0.016 g of xylene/cyclohexanone solution was added to 19.984 g latex paint formulation to give 0.01-lb/100-gal solution.
The solutions were stirred manually with Teflon spatulas and each was applied to two tongue depressors using #7 paint brushes. Two control tongue depressors were similarly prepared except without oxyfluorfen in the latex paint formulation. The tongue depressors were allowed to dry for one week and then inoculated with four 50 ul drops of mixed cooling tower algae (obtained from surface scrapings of industrial cooling towers and maintained in a modified Allen's media formulation, described in EXAMPLE 1).
The tongue depressors were placed on plastic stages within large petri dishes and the area around the stages was filled with deionized water. The petri dishes were covered and placed in a Precision (Model 816) low temperature (25C) illuminated incubator for one week; at this point the tongue depressors were re-inoculated with one ml of the mixed cooling tower algae and returned to the incubator. The tongue depressors where then checked daily for algal growth (visual); results are found in Part C.
Oxyfluorfen was added as a 24% emulsifiable concentrate in mixed organic solvents. The following formulation is a typical paint blend for testing of stabilization against algal activity. Texanol¿ is trimethyl-1,3-pentanediol monoisobutyrate supplied by Eastman Chemical; Rhoplex AC-64 is a commercially available latex of a copolymer of butyl acrylate and methyl methacrylate. This paint formulation has a pH of 9.4 and an initial viscosity of […] (Krebs units).

[8] = test system: 10 differents types of algae; settings: all levels tested; 10 types of algae; cited from earlier work
[9] = 10 ppm (0.01 lb/100-gal) in latex paint
[10] = 100 ppm (0.10 lb/100-gal) in latex paint
[11] = 1000 ppm (1.0 lb/100-gal) in latex paint
[12] = 2000 ppm (2.0 lb/100-gal) in latex paint

Compound: Oc1cccc(Oc2ccc(C(F)(F)F)cc2Cl)c1 [4A comparative]
MIC (Anabaena flos-aquae): 3.1 µg/mL (≈ 10.7 µM)
MIC [1]: 1.6 µg/mL (≈ 5.54 µM)

Compound: CC(=O)Oc1cccc(Oc2ccc(C(F)(F)F)cc2Cl)c1 [4B comparative]
MIC (Anabaena flos-aquae): 16 µg/mL (≈ 48.4 µM)
MIC [1]: 8 µg/mL (≈ 24.2 µM)

Compound: O=C(O)c1cc(Oc2ccc(C(F)(F)F)cc2Cl)ccc1[N+](=O)[O-] [4E comparative]
MIC (Anabaena flos-aquae): > 50 µg/mL
MIC [1]: 12.5 µg/mL (≈ 34.6 µM)

Compound: CCOc1cc(Oc2ccc(C(F)(F)F)cc2Cl)ccc1[N+](=O)[O-] [Oxyfluorfen, oxyfluorfen]
Chlorophyll a in Biofilm ([2]; 0.05 ppm): 3.27 ug/cm2
activity at 0.05 ppm ([2]; 672 h, read-out: Chlorophyll a in Biofilm % of control): 24%
Visual Rating (7 Day Incubation) ([3]; 0.005 ppm): 0
Visual Rating (7 Day Incubation) ([3]; 0.010 ppm): 0
Visual Rating (7 Day Incubation) ([3]; 0.025 ppm): 0
Visual Rating (7 Day Incubation) ([3]; 0.050 ppm): 0
Visual Rating (7 Day Incubation) ([3]; 0.100 ppm): 0
Visual Rating (7 Day Incubation) ([3]; 0.250 ppm): 0
Visual Rating (7 Day Incubation) ([3]; 0.500 ppm): 0
levels effective for controlling cooling tower algae ([3]; simulated water chemistry conditions): ≤ 5 ppb
MIC (Anabaena flos-aquae): > 500 µg/mL
MIC (Chlorella pyrenoidosa): 0.125 ppm
MIC (Clorococcum oleofaciens): > 0.125 µg/mL
MIC (Nostoc commune): > 500 µg/mL
MIC [4]: > 500 µg/mL
MIC (Scendesmus quadricaudra): < 0.002 µg/mL
MIC [5]: 0.008 µg/mL (≈ 0.0221 µM)
MIC [6]: > 500 µg/mL
MIC [1]: < 0.004 µg/mL
7 Days Algal Growth [7, 9]: 0
10 Days Algal Growth [7, 9]: 2
14 Days Algal Growth [7, 9]: 3
7 Days Algal Growth [7, 10]: 0
10 Days Algal Growth [7, 10]: 1
14 Days Algal Growth [7, 10]: 1
7 Days Algal Growth [7, 11]: 0
10 Days Algal Growth [7, 11]: 0
14 Days Algal Growth [7, 11]: 0
7 Days Algal Growth [7, 12]: 0
10 Days Algal Growth [7, 12]: 0
14 Days Algal Growth [7, 12]: 0
levels that significantly reduced the rate of algal growth ([7]; for up to 14 days, in latex paint): ≤ 10 ppm
levels that totally inhibited algal growth ([7]; in latex paint): above 100 ppm

Compound: O=C(O)c1cc(Oc2ccc(C(F)(F)F)cc2Cl)ccc1[N+](=O)[O-] [acifluorfen, 2-chloro-4-trifluoromethylphenyl-3′-carboxy-4′-nitrophenylether, sodium salt]
effectiveness on algae [8]: ineffective at all levels tested

Results, then the compound that gave them:

MIC (Anabaena flos-aquae): 12.5 µg/mL (≈ 33.3 µM)
MIC [1]: 0.25 µg/mL (≈ 0.665 µM)
Compound: CC(=O)Oc1cc(Oc2ccc(C(F)(F)F)cc2Cl)ccc1[N+](=O)[O-] [4C comparative]

MIC (Anabaena flos-aquae): 12.5 µg/mL (≈ 37.5 µM)
MIC [1]: 0.06 µg/mL (≈ 0.18 µM)
Compound: O=[N+]([O-])c1ccc(Oc2ccc(C(F)(F)F)cc2Cl)cc1O [4D comparative]

MIC [1]: 1 µg/mL (≈ 2.23 µM)
Compound: CCOC(=O)COC(=O)c1cc(Oc2ccc(C(F)(F)F)cc2Cl)ccc1[N+](=O)[O-] [4F comparative]

MIC [1]: 0.25 µg/mL (≈ 0.576 µM)
Compound: CCOC(=O)C(C)Oc1cc(Oc2ccc(C(F)(F)F)cc2Cl)ccc1[N+](=O)[O-] (stereo not shown) [Compound 4G]
